Test results reported in patent publication US10189803B2, “Synthesis of therapeutic and diagnostic drugs centered on regioselective and stereoselective ring opening of aziridinium ions” (ILLINOIS INSTITUTE OF TECHNOLOGY, priority 2008, dated 2019).
Several values for one entry are separate records, joined by “and”; a condition that tells them apart may be missing. Equal values may be shown once. Entries after “also recorded” stand apart in the source; their conditions may differ.

Key:
Hela cells = experiment: Antiproliferative activity, MTS assay, HeLa cells; assay type: cell-based, Human; details: for IC50: 72 h incubation, MTS; for cytotoxicity in HeLa cells over a series of concentrations (in words): FIG. 18
Description: (§1) Cell culture Human cervix HeLa cell line was obtained from ATCC (Rockville, Md.) and cultured in minimum essential medium (MEM) with L-glutamine (2 mM), Earle's BSS and sodium bicarbonate (1.5 g/L), supplemented with 10% fetal bovine serum (FBS), non-essential amino acids (0.1 mM), sodium pyruvate (1 mM) and antibiotic/antimycotic solution in a humidified atmosphere with 5% CO2 at 37° C. […] Lung fibroblast MRC-5 cell line was obtained from ATCC (Rockville, Md.) and cultured in ATCC formulated EMEM, supplemented with 10% fetal bovine serum (FBS) in a humidified atmosphere with 5% CO2 at 37° C.
(§2) Antiproliferative Activity. Cells were seeded onto 96-well plate at density of 2,000 cells for Hela cells or 5,000 cells for HT29 cells or 5,000 cells for MRC-5 per well in 0.1 mL complete medium and allowed to attach for 24 h. Varying concentrations of the test compounds in the final volume of 0.1 mL complete medium were then added in at least five series dilutions and incubated for 72 h. To measure cell proliferation, the Cell Titer 96 aqueous nonreactive cell proliferation assay (Promega Life Sciences, Madison, Wis.) was used according to the manufacturer's instructions. Briefly, MTS (2 mg/mL) and PMS (0.92 mg/ml) were mixed in a ratio of 20:1. An aliquot (20 μL) of the MTS/PMS mixture was added into each well, and the plate was incubated for 3 h at 37° C. Optical absorbance at 490 nm was then recorded with an enzyme-linked immunosorbent assay (ELISA) microtiter plate reader (Biotek). Each experiment was done at least in triplicate. Antiproliferative activity of the test compounds was expressed as the fraction of optical densities of treated the cells relative to the untreated solvent controls.^31 The data were plotted in GraphPad Prizm 3.0. Nonlinear regression analysis was used to determine IC50 values.
(§3) Cell culture. Human cervix HeLa cell line was obtained from ATCC (Rockville, Md.) and cultured in minimum essential medium (MEM) with L-glutamine (2 mM), Earle's BSS and sodium bicarbonate (1.5 g/L), supplemented with 10% fetal bovine serum (FBS), non-essential amino acids (0.1 mM), sodium pyruvate (1 mM) and antibiotic/antimycotic solution in a humidified atmosphere with 5% CO2 at 37° C.
as §2, with “activity.” for “Activity.”, “cells” for “cells or 5,000 cells for MRC-5”, “controls.” for “controls.^31”

HT29 cells = experiment: Antiproliferative activity, MTS assay, HT29 cells; assay type: cell-based, Human
Description: as §1, §2, §3
as §2, with “activity.” for “Activity.”, “cells” for “cells or 5,000 cells for MRC-5”, “controls.” for “controls.^31”

[1] = In vitro serum stability of 64Cu-labeled ligands in rat serum (radio-TLC); assay type: in vitro ADME; details: for Purity (serum stability, radio-TLC): 37° C., n=3; for 64Cu dissociated from the complex: in 24 hours; for stability in rat serum (in words): 48 hours
Description: The radiolabeling reactions of the ligands with ^64Cu were performed at elevated temperatures to ensure complete complex formation. At the no-carrier-added (NCA) level, all ligands were successfully labeled with ^64Cu in quantitative radiochemical yields (100%) as determined by radio-TLC. […] The ^64Cu-labeled complexes were freshly prepared for their serum stability evaluation, which was assessed by measuring the transfer of radionuclide from the complex to serum proteins over 24 hours or 48 hours.
In vitro serum stability: To 100 μL of rat serum, 10 μL of each ^64Cu-labeled complex was added (n=3 per complex). DOTA labeled with ^64Cu was used as a positive control. The resulting solutions were incubated at 37° C. in a water-bath. At 1 h, 4 h, 24 h and 48 h after the complex addition to rat serum, the solutions were sampled and analyzed by radio-TLC.

[2] = In vitro serum stability of 177Lu-labeled complexes (radio-TLC, HPLC); assay type: in vitro ADME, mouse; parameters: Radiolabled Complex, in vitro serum stability (Table 1): unit not given here; details: for Radiolabled Complex, in vitro serum stability (Table 1): 37° C.
Description: The new ligand DEPA was radiolabeled with ^177Lu and ^205/6Bi (a surrogate of ^212Bi and ^213Bi) and the corresponding radiolabeled complexes were evaluated for in vitro serum stability as described previously. For comparison, DOTA was also radiolabeled with ^177Lu. DEPA and DOTA (0.25 M NH4OAc buffer, pH 4.0) was radiolabeled with ^177Lu at 45° C. for 0.5 h to afford ^177Lu-DEPA (Rf=0.6) and ^177Lu-DOTA (Rf=0.4) in the respective radiochemical yield of 90% and 95% as determined by radio-TLC. DEPA (0.25 M NH4OAc buffer, pH 5.0) was successfully radiolabeled with ^205/6Bi at room temperature for 1 h to afford ^205/6Bi-DEPA in 96% yield (radio-TLC). ^177Lu-DOTA, 177Lu-DEPA, and ^205/6Bi-DEPA formed were purified from unbound ^205/6Bi by ion-exchange chromatography using a Chelex-100 column (1 mL volume bed, 100-200 mesh, Na^+ form, Bio-Rad, Richmond, Calif.) eluted with PBS (pH 7.4). In vitro serum stability of the purified radiolabeled complexes was performed to determine if DEPA or DOTA radiolabeled with ^177Lu or ^205/6Bi remained stable without loss of the radionuclide in human serum. This was assessed by measuring the transfer of radionuclide from the complex to serum proteins. […] However, ˜10% of the radioactivity was released from ^177Lu-DOTA over 4 days.
In vitro serum stability of the radiolabeled metal complexes. An aliquot of 3.7 MBq of the purified ^177Lu-labeled ligands was added to 0.5 mL of mouse serum (Sigma, St. Louis, Mo.) and 0.1% NaN3. The resulting mixture was incubated at 37° C. for 96 h. Aliquots of 2 μL of the resulting mixture were analyzed by radio-TLC and HPLC at different time points, 0, 0.25, 0.5, 1, 2, 4, 6, 24, 48, and 96 h of incubation. The stability of purified ^205/6Bi-DEPA was evaluated in human serum (Gemini Bioproducts, Woodland, Calif.) for 14 days by measuring the transfer of the radionuclide from the complex to serum proteins as monitored by SE-HPLC. Radiolabeled complexes were diluted to an appropriate volume that allowed for preparation of multiple samples containing 5-10 μCi and filter-sterilized using a Millex-GV 0.22 μm filter. 140 μL of this stock solution was then mixed with 1400 μL of sterile normal human serum or saline. Aliquots (200 μL) were drawn and separated into individual tubes for subsequent analysis using aseptic technique. The samples were incubated at 37° C., and at designated intervals, subjected to analysis by SE-HPLC. Samples were loaded onto the HPLC and eluted with PBS, pH 7.4 isocratically at 1 mL/min. […] Radioactivity associated with a transfer to serum proteins generally appeared between ˜4.5-8 min.

Compound: O=C(O)CN1CCN(CCN(CC(=O)O)Cc2ccccc2)CCN(CC(=O)O)CC1 [Bn-NE3TA]
- IC50 (Hela cells): 4.4 ± 0.9 µM
- cytotoxicity in HeLa cells over a series of concentrations (in words) (Hela cells): highest activity against HeLa cells
- IC50 (HT29 cells; 72 h incubation): 2.6 ± 0.2 µM

Compound: O=C(O)CNC(Cc1ccc([N+](=O)[O-])cc1)CN1CCN(CC(=O)O)CCN(CC(=O)O)CC1 (stereo not shown) [C-NE3TA, {4-Carboxymethyl-7-[2-(carboxymethyl-amino)-3-(4-nitro-phenyl)-propyl]-[1,4,7]triazonan-1-yl}-acetic acid]
- IC50 (Hela cells; Homo sapiens): 7.1 ± 0.1 µM
- IC50 (HT29 cells; Homo sapiens, HT-29, 72 h incubation): 5 ± 0.7 µM

Compound: O=C(O)CN1CCN(CC(=O)O)CCN(CC(Cc2ccc([N+](=O)[O-])cc2)N(CC(=O)O)CC(=O)O)CC1 (stereo not shown) [C-NETA]
- IC50 (Hela cells): > 100 µM
- cytotoxicity in HeLa cells over a series of concentrations (in words) (Hela cells): virtually no inhibitory activity
- IC50 (HT29 cells; 72 h incubation): 45.7 ± 4 µM

Compound: O=C(O)CN1CCN(CCO)CCN(CC(=O)O)CC1.[64Cu] [^64Cu-NBEA]
- Purity (serum stability, radio-TLC) ([1]; incubation time 1 h): 100 ± 0.0
- Purity (serum stability, radio-TLC) ([1]; incubation time 4 h): 100 ± 0.0
- Purity (serum stability, radio-TLC) ([1]; incubation time 24 h): 45.3 ± 9.8
- 64Cu dissociated from the complex [1]: 54%

Compound: O=C(O)CN1CCN(CCCO)CCN(CC(=O)O)CC1.[64Cu] [^64Cu-NBPA]
- Purity (serum stability, radio-TLC) ([1]; incubation time 1 h): 99.6 ± 0.7
- Purity (serum stability, radio-TLC) ([1]; incubation time 4 h): 97.5 ± 4.4
- Purity (serum stability, radio-TLC) ([1]; incubation time 24 h): 70.5 ± 6.5
- 64Cu dissociated from the complex [1]: 29%

Compound: O=C(O)CN1CCN(CCN(CC(=O)O)Cc2ccccc2)CCN(CC(=O)O)CC1.[64Cu] [^64Cu-NE3TA-Bn]
- Purity (serum stability, radio-TLC) ([1]; incubation time 1 h): 100 ± 0.0
- Purity (serum stability, radio-TLC) ([1]; incubation time 4 h): 100 ± 0.0
- Purity (serum stability, radio-TLC) ([1]; incubation time 24 h): 100 ± 0.0
- Purity (serum stability, radio-TLC) ([1]; incubation time 48 h): 100 ± 0.0
- stability in rat serum (in words) [1]: no measurable loss of radioactivity

Compound: O=C(O)CNCCN1CCN(CC(=O)O)CCN(CC(=O)O)CC1.[64Cu] [^64Cu-NE3TA]
- Purity (serum stability, radio-TLC) ([1]; incubation time 1 h): 100 ± 0.0
- Purity (serum stability, radio-TLC) ([1]; incubation time 4 h): 100 ± 0.0
- Purity (serum stability, radio-TLC) ([1]; incubation time 24 h): 100 ± 0.0
- Purity (serum stability, radio-TLC) ([1]; incubation time 48 h): 100 ± 0.0
- stability in rat serum (in words) [1]: no measurable loss of radioactivity

Compound: O=C(O)CN1CCN(CCN(CC(=O)O)CC(=O)O)CCN(CC(=O)O)CCN(CC(=O)O)CC1.[177Lu] [^177Lu-DEPA]
- Radiolabled Complex, in vitro serum stability (Table 1) ([2]; serum, 0 h): 100
- Radiolabled Complex, in vitro serum stability (Table 1) ([2]; serum, 0.5 h): 100
- Radiolabled Complex, in vitro serum stability (Table 1) ([2]; serum, 1 h): 100
- Radiolabled Complex, in vitro serum stability (Table 1) ([2]; serum, 2 h): 100
- Radiolabled Complex, in vitro serum stability (Table 1) ([2]; serum, 4 h): 100
- Radiolabled Complex, in vitro serum stability (Table 1) ([2]; serum, 6 h): 100
- Radiolabled Complex, in vitro serum stability (Table 1) ([2]; serum, 24 h): 100
- Radiolabled Complex, in vitro serum stability (Table 1) ([2]; serum, 48 h): 100
- Radiolabled Complex, in vitro serum stability (Table 1) ([2]; serum, 96 h): 100
- serum stability of 177Lu complex (in words) ([2]; serum, up to 96 h): remained intact without being dissociated in serum; also recorded: stable in serum

Compound: O=C([O-])CN1CCN(CC(=O)[O-])CCN(CC(=O)[O-])CCN(CC(=O)[O-])CC1.[177Lu+3].[H+] [^177Lu-DOTA, reference compound]
- radioactivity released from the complex in serum ([2]; over 4 days): ~10% and 11%
- Radiolabled Complex, in vitro serum stability (Table 1) ([2]; serum, 0 h): 100
- Radiolabled Complex, in vitro serum stability (Table 1) ([2]; serum, 0.5 h): 99.0
- Radiolabled Complex, in vitro serum stability (Table 1) ([2]; serum, 1 h): 100.1
- Radiolabled Complex, in vitro serum stability (Table 1) ([2]; serum, 2 h): 99.3
- Radiolabled Complex, in vitro serum stability (Table 1) ([2]; serum, 4 h): 97.0
- Radiolabled Complex, in vitro serum stability (Table 1) ([2]; serum, 6 h): 97.5
- Radiolabled Complex, in vitro serum stability (Table 1) ([2]; serum, 24 h): 98.2
- Radiolabled Complex, in vitro serum stability (Table 1) ([2]; serum, 48 h): 91.2
- Radiolabled Complex, in vitro serum stability (Table 1) ([2]; serum, 96 h): 89.6

Compound: Apo-N-NE3TA: ligand-transferin conjugate (apo) of N-NE3TA-NCS
- IC50 (Hela cells): 8.85 ± 1.43 µM

Compound: Holo-C-NE3TA: ligand-transferin conjugate (holo) of C-NE3TA-NCS
- IC50 (Hela cells): 7.03 ± 0.09 µM

Compound: Holo-N-NE3TA: ligand-transferin conjugate (holo) of N-NE3TA-NCS
- IC50 (Hela cells): 11.5 ± 0.21 µM
